PubChem BioAssay AID2060330 (Molecular Pharmacology Branch, DTP, NCI, 2025)

Tested on: LG0703-F948-PDC spheroids with HUVEC/MSC, viability
Experiment: Anticancer human tumor LG0703-F948-PDC patient-derived lung adenocarcinoma cell line growth inhibition [IpAb]
Conditions: for IC50: curve of first compound; for viability, T/C: stronger effect = lower value
Excerpt: Combinatorial screen of targeted agents with ipatasertib and abemaciclib in multi-cell type tumor spheroids
A high-throughput screen of multi-cell type tumor spheroids was designed to identify active combinations of targeted small molecules and ipatasertib or abemaciclib. Complex spheroids include a stromal component modeled by human endothelial cells (HUVEC) and fibroblasts modeled by human mesenchymal stem cells (MSCs). The concentration ranges selected for each drug and investigational agent were based upon clinically achievable concentrations if the clinical Cmax of the agent was known.
Compounds. The drugs and investigational agents: ipatasertib (NSC767898), abemaciclib(NSC768073), selumetinib (NSC741078), trametinib (758246), adavosertib (NSC754352), everolimus (NSC733504), sapanisertib (NSC764658), vemurafenib (NSC761431), venetoclax (NSC766270), copanlisib (NSC809693), apelisib (NSC765974), palbociblib (NSC758247), vemurafenib (NSC761431), dabrafenib (NSC764134), ravoxertinib (NSC781343), BMS-387032 (NSC767048), sotorasib (NSC818433), talazoparib (NSC767125) and afursertib (NSC778305), were obtained from the National Cancer Institute (NCI) Developmental Therapeutics Program Chemical Repository. The FDA-approved anticancer drug set is available from the NCI Developmental Therapeutics Program. […] The stock solutions were prepared in dimethyl sulfoxide (DMSO, Sigma-Aldrich, St. Louis, MO, cat. D2650) at 800-fold the tested concentration and stored at -70 degrees C prior to their use. All drugs and investigational agents were tested over a range starting from a high concentration at or near the clinical Cmax and decreasing in half-log increments. If the clinical Cmax for an agent had not been determined, the highest concentration tested was 10 microM.
NCI60 Cell Culture. NCI60 cell lines were obtained from the NCI Developmental Therapeutics Program Tumor Repository. For each lot of cells, the Repository performed Applied Biosystems AmpFLSTR Identifiler testing with PCR amplification to confirm consistency with the published Identifier STR profile for each cell line. Cells were kept in continuous culture for no more than 20 passages. The optimal seeding densities for each of the cell lines at each time point assessed were determined prior to performing the concentration response studies. Briefly, the NCI60 human tumor lines were grown as monolayers in RPMI 1640 medium supplemented with 10% FBS and 2 mmol/L L-glutamine.
An additional 9 lines were from the NCI60 cell line panel including MDA-MB-231 breast carcinoma, MDA-MB-468 breast carcinoma, MCF7 breast carcinoma, Hs578T breast carcinoma, MALME-3M melanoma, SK-MEL-2 melanoma, SK-OV-3 ovarian carcinoma, DU-145 prostate carcinoma, PC-3 prostate carcinoma, all cell lines along with major genetic alterations are listed on Table 2. Pooled donor human umbilical vein endothelial cells (HUVEC, Lonza, cat. CC-2519) and human mesenchymal stem cells (hMSC, Lonza, cat. PT-2501) were purchased from Lonza (Walkersville, MD).
PDMR cell lines were grown in complete medium (DC medium): Dulbecco's modified Eagle's medium (DMEM)/F12 supplemented with 5% fetal bovine serum (FBS), 2 mM L-glutamine, 100 U/mL penicillin and 100 µg/ml streptomycin, 0.4 µg/ml hydrocortisone, 10 ng/ml epidermal growth factor (EGF) recombinant human protein, 24 µg/mL adenine, and 0.1 mg/mL primocin. During culture from frozen stock vials, PDMR cells were cultured in the same medium containing 10 µM Y-27632 (see Table 3). The PDCs were cultured in complete DMEM/F12 media without 10 microM Y-27632 dihydrochloride for at least two passages prior to the screen. The pooled donor HUVEC and hMSC were cultured in endothelial cell growth medium 2 (PromoCell, Heidelberg, Germany, cat. C-22011) and mesenchymal stem cell growth medium 2 (PromoCell, cat. C-28009), respectively. For all experiments, HUVEC and hMSC were used at passages </=5.
[…]

[1] = second compound 0.1 µM, first compound 0.0316 µM
[2] = second compound 0.1 µM, first compound 0.1 µM
[3] = second compound 0.1 µM, first compound 0.316 µM
[4] = second compound 0.1 µM, first compound 1 µM
[5] = second compound 0.1 µM, first compound 3.16 µM
[6] = second compound 0.1 µM, first compound 10 µM
[7] = second compound 0.316 µM, first compound 0.0316 µM
[8] = second compound 0.316 µM, first compound 0.1 µM
[9] = second compound 0.316 µM, first compound 0.316 µM
[10] = second compound 0.316 µM, first compound 1 µM
[11] = second compound 0.316 µM, first compound 3.16 µM
[12] = second compound 0.316 µM, first compound 10 µM
[13] = second compound 1 µM, first compound 0.0316 µM
[14] = second compound 1 µM, first compound 0.1 µM
[15] = second compound 1 µM, first compound 0.316 µM
[16] = second compound 1 µM, first compound 1 µM
[17] = second compound 1 µM, first compound 3.16 µM
[18] = second compound 1 µM, first compound 10 µM
[19] = second compound 3.16 µM, first compound 0.0316 µM
[20] = second compound 3.16 µM, first compound 0.1 µM
[21] = second compound 3.16 µM, first compound 0.316 µM
[22] = second compound 3.16 µM, first compound 1 µM
[23] = second compound 3.16 µM, first compound 3.16 µM
[24] = second compound 3.16 µM, first compound 10 µM
[25] = second compound 10 µM, first compound 0.0316 µM
[26] = second compound 10 µM, first compound 0.1 µM
[27] = second compound 10 µM, first compound 0.316 µM
[28] = second compound 10 µM, first compound 1 µM
[29] = second compound 10 µM, first compound 3.16 µM
[30] = second compound 10 µM, first compound 10 µM
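Note: spheroids exposed to compounds for seven days before readout.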
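Throughout, for viability, T/C: T/C percent relative to DMSO vehicle wells set as 100% viability.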

Structure (SMILES)	IC50 (second compound 0.1 µM) [µM]	IC50 (second compound 0.316 µM) [µM]	IC50 (second compound 1 µM) [µM]	IC50 (second compound 3.16 µM) [µM]	IC50 (second compound 10 µM) [µM]	viability, T/C [1] [%]	viability, T/C [2] [%]	viability, T/C [3] [%]	viability, T/C [4] [%]	viability, T/C [5] [%]	viability, T/C [6] [%]	viability, T/C [7] [%]	viability, T/C [8] [%]	viability, T/C [9] [%]	viability, T/C [13] [%]	viability, T/C [14] [%]	viability, T/C [19] [%]	viability, T/C [20] [%]	viability, T/C [25] [%]	viability, T/C [26] [%]	other results
C=CCn1c(=O)c2cnc(Nc3ccc(N4CCN(C)CC4)cc3)nc2n1-c1cccc(C(C)(C)O)n1 + CC(C)NCC(C(=O)N1CCN(c2ncnc3c2C(C)CC3O)CC1)c1ccc(Cl)cc1	0.704	0.243	< 0.0316	< 0.0316	< 0.0316	97.8	94.6	72.4	40.5	13.2	4.37	75.6	66.5	45.6	44.7	36.7	39.3	39.6	28.6	24.1	viability, T/C [10]: 17.1%; viability, T/C [11]: 5.97%; viability, T/C [12]: 2.34%; viability, T/C [15]: 37.1%; viability, T/C [16]: 16.5%; viability, T/C [17]: 7.72%; viability, T/C [18]: 2.58%; viability, T/C [21]: 28.3%; viability, T/C [22]: 13.2%; viability, T/C [23]: 6.52%; viability, T/C [24]: 3.11%; viability, T/C [27]: 15.9%; viability, T/C [28]: 5.77%; viability, T/C [29]: 5.31%; viability, T/C [30]: 6.51%
CC(C)n1nc(-c2ccc3oc(N)nc3c2)c2c(N)ncnc21 + CC(C)NCC(C(=O)N1CCN(c2ncnc3c2C(C)CC3O)CC1)c1ccc(Cl)cc1	0.00249	0.000914	< 0.000316	< 0.000316	< 0.000316	18.9	18.9					16.4	12.6		11.2	9.31	7.95	7.22	5.1	29.5	viability, T/C (second compound 0.1 µM, first compound 0.000316 µM): 77.5%; viability, T/C (second compound 0.1 µM, first compound 0.001 µM): 64.8%; viability, T/C (second compound 0.1 µM, first compound 0.00316 µM): 47.5%; viability, T/C (second compound 0.1 µM, first compound 0.01 µM): 25.9%; viability, T/C (second compound 0.316 µM, first compound 0.000316 µM): 65%; viability, T/C (second compound 0.316 µM, first compound 0.001 µM): 49%; viability, T/C (second compound 0.316 µM, first compound 0.00316 µM): 32%; viability, T/C (second compound 0.316 µM, first compound 0.01 µM): 21.4%; viability, T/C (second compound 1 µM, first compound 0.000316 µM): 49.1%; viability, T/C (second compound 1 µM, first compound 0.001 µM): 37%; viability, T/C (second compound 1 µM, first compound 0.00316 µM): 22.8%; viability, T/C (second compound 1 µM, first compound 0.01 µM): 14%; viability, T/C (second compound 3.16 µM, first compound 0.000316 µM): 39.7%; viability, T/C (second compound 3.16 µM, first compound 0.001 µM): 24.9%; viability, T/C (second compound 3.16 µM, first compound 0.00316 µM): 15.1%; viability, T/C (second compound 3.16 µM, first compound 0.01 µM): 8.55%; viability, T/C (second compound 10 µM, first compound 0.000316 µM): 31.7%; viability, T/C (second compound 10 µM, first compound 0.001 µM): 18.1%; viability, T/C (second compound 10 µM, first compound 0.00316 µM): 10.4%; viability, T/C (second compound 10 µM, first compound 0.01 µM): 16.2%
CC1(C)CCC(CN2CCN(c3ccc(C(=O)NS(=O)(=O)c4ccc(NCC5CCOCC5)c([N+](=O)[O-])c4)c(Oc4cnc5[nH]ccc5c4)c3)CC2)=C(c2ccc(Cl)cc2)C1 + CC(C)NCC(C(=O)N1CCN(c2ncnc3c2C(C)CC3O)CC1)c1ccc(Cl)cc1	4.06	3.19	< 0.0316	< 0.0316	< 0.0316	90.8	82.1	77.8	72.8	64.2	10.8	71.2	60	67.4	49.2	43	42.1	44.4	41	43.3	viability, T/C [10]: 63%; viability, T/C [11]: 50.4%; viability, T/C [12]: 8.61%; viability, T/C [15]: 53%; viability, T/C [16]: 46.5%; viability, T/C [17]: 44.3%; viability, T/C [18]: 7.68%; viability, T/C [21]: 40.9%; viability, T/C [22]: 39.8%; viability, T/C [23]: 30.6%; viability, T/C [24]: 5.93%; viability, T/C [27]: 35.3%; viability, T/C [28]: 37.9%; viability, T/C [29]: 29.2%; viability, T/C [30]: 3.65%
CCCS(=O)(=O)Nc1ccc(F)c(C(=O)c2c[nH]c3ncc(-c4ccc(Cl)cc4)cc23)c1F + CC(C)NCC(C(=O)N1CCN(c2ncnc3c2C(C)CC3O)CC1)c1ccc(Cl)cc1	> 10	> 10	3.78	< 0.0316	< 0.0316	85.5	89.6	85	91.2	86.2	67.5	69.2	71.7	68.4	54.1	49.6	41.1	42.8	35.6	39.7	viability, T/C [10]: 78.2%; viability, T/C [11]: 75%; viability, T/C [12]: 55.6%; viability, T/C [15]: 50%; viability, T/C [16]: 52.1%; viability, T/C [17]: 56.9%; viability, T/C [18]: 36.5%; viability, T/C [21]: 45%; viability, T/C [22]: 46.3%; viability, T/C [23]: 49.6%; viability, T/C [24]: 25.6%; viability, T/C [27]: 38.3%; viability, T/C [28]: 45.1%; viability, T/C [29]: 44%; viability, T/C [30]: 7.66%
